From PubChem BioAssay (NCI)
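Briefly, cells in 96-well plates were exposed to five compound concentrations for 48 h, and endpoints were estimated by linear interpolation. The concentration for 50% growth inhibition is given as GI50. TGI: total growth inhibition.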

How the values were obtained:
Test in all cases: inhibition of tumour cell growth, NCI panel, 48 h
MALME-3M melanoma = test system: MALME-3M melanoma
NCI-H460 lung = test system: NCI-H460 lung
SK-MEL-28 melanoma = test system: SK-MEL-28 melanoma
RPMI-8226 leukemia = test system: RPMI-8226 leukemia
CCRF-CEM leukemia = test system: CCRF-CEM leukemia
NCI-H226 lung = test system: NCI-H226 lung
OVCAR-4 ovarian = test system: OVCAR-4 ovarian
TK-10 renal = test system: TK-10 renal
KM12 colon = test system: KM12 colon
SK-OV-3 ovarian = test system: SK-OV-3 ovarian

Row | SMILES | TGI (MALME-3M melanoma) | TGI (NCI-H460 lung) | TGI (SK-MEL-28 melanoma) | TGI (RPMI-8226 leukemia) | TGI (CCRF-CEM leukemia) | TGI (NCI-H226 lung) | TGI (OVCAR-4 ovarian) | TGI (TK-10 renal) | TGI (KM12 colon) | TGI (SK-OV-3 ovarian) | GI50 (NCI-H460 lung) | GI50 (SK-MEL-28 melanoma) | GI50 (SK-OV-3 ovarian) | GI50 (RPMI-8226 leukemia) | GI50 (CCRF-CEM leukemia) | GI50 (NCI-H226 lung) | GI50 (OVCAR-4 ovarian) | GI50 (TK-10 renal) | GI50 (KM12 colon) | GI50 (MALME-3M melanoma)
1 | COc1ccc2c(c1OC)C1=C(C2=O)c2cc3c(cc2CCN1)OCO3 | > 100 µM | 92.7 µM | > 100 µM | 59.3 µM | > 100 µM | 9.58 µM | > 100 µM | > 100 µM | 78 µM |  |  |  |  |  |  |  |  |  |  | 
2 | O=C(O)/C(=C/c1c(O)ccc2ccccc12)c1csc(-c2nc(/C(=C\c3c(O)ccc4ccccc34)C(=O)O)cs2)n1 | 3.95 µM | 49.1 µM | 32.1 µM | 43.8 µM | 31.4 µM | 7.39 µM |  | 58 µM | 53.2 µM | 26.8 µM |  |  |  |  |  |  |  |  |  | 
3 | CN1c2ccccc2N(C)C2C1N(C)c1ccccc1N2C (stereo unspecified) | 76.4 µM | > 100 µM | 17.6 µM | 62.9 µM | 9.73 µM | 83.2 µM | > 100 µM | > 100 µM | > 100 µM |  |  |  |  |  |  |  |  |  |  | 
4 | Nc1ccc2c(c1)NCCN2 | > 100 µM | > 100 µM | > 100 µM | > 100 µM |  | 52.2 µM | > 100 µM | > 100 µM | > 100 µM |  |  |  |  |  |  |  |  |  |  | 
5 | NNc1cccc(/C=C/c2ccccc2)cc1=O |  | 42.3 µM | > 100 µM | > 100 µM | 29.5 µM | > 100 µM | > 100 µM | > 100 µM | > 100 µM | > 100 µM | 3.61 µM | 35.9 µM | 19.8 µM | 3.85 µM | 1.36 µM | 19.9 µM | 4.66 µM | 50.6 µM | 8.33 µM | 
6 | CCOC(=O)C(CO)c1nc2c([nH]c1=O)c(=O)n(C)c(=O)n2C (stereo unspecified) | > 100 µM | > 100 µM | > 100 µM | > 100 µM | > 100 µM | > 100 µM |  | > 100 µM | > 100 µM |  |  |  |  |  |  |  |  |  |  | 
7 | O=C(c1ccc2ncc(-c3nc(NC4CC4)ncc3F)n2c1)N1CCOCC1 | 8.35 µM | > 100 µM | 7.6 µM | 5.32 µM | 4.74 µM | 6.39 µM | 10.9 µM |  | 11.8 µM |  | 2.91 µM | 2.47 µM |  | 1.98 µM | 1.72 µM | 2.05 µM | 2.8 µM |  | 2.28 µM | 3.33 µM
8 | C[C@]1(CO)[C@H]2CC[C@@]34C=C[C@@](CO)(CC[C@H]3[C@]2(C)CC[C@H]1O)C4 | > 100 µM |  | > 100 µM | 86.6 µM | > 100 µM | > 100 µM | > 100 µM | > 100 µM | > 100 µM | > 100 µM |  |  |  |  |  |  |  |  |  | 
9 | CCCCNN | > 100 µM |  | > 100 µM | > 100 µM | > 100 µM | > 100 µM | > 100 µM | > 100 µM | > 100 µM | > 100 µM |  |  |  |  |  |  |  |  |  | 
10 | CCC(=O)C(C)C1=Nc2nnc(CCCCCCCc3nnc4n3C(=O)C(C(C)C(=O)CC)=N4)n2C1=O (stereo unspecified) | > 100 µM | > 100 µM | > 100 µM | > 100 µM | > 100 µM | > 100 µM |  | > 100 µM | > 100 µM | > 100 µM |  |  |  |  |  |  |  |  |  | 
11 | CN(CN1C(=O)C2Cc3ccccc3CN2C1=O)c1ccccn1 (stereo unspecified) | > 100 µM | > 100 µM | > 100 µM | > 100 µM | > 100 µM | > 100 µM | > 100 µM | > 100 µM | > 100 µM |  |  |  |  |  |  |  |  |  |  | 
12 | CC(=O)OC1CC2C(C)(C)C(=O)C=C[C@]2(C)C2CCC3(C)C(c4ccoc4)C(=O)[C@H]4O[C@]43[C@]12C (stereo partly specified) | 32.1 µM | 36.8 µM | 32.7 µM | 47.3 µM | 62.3 µM | 50.4 µM | > 100 µM | > 100 µM |  | > 100 µM |  |  |  |  |  |  |  |  |  | 
13 | O=S(=O)(NCC1CCC(CNc2ccc(Cl)cc2)CC1)c1ccc(-c2ccccc2)cc1 (stereo unspecified) |  | > 50 µM | > 50 µM | > 50 µM | > 50 µM | > 50 µM | > 50 µM | > 50 µM | > 50 µM | > 50 µM | 42.5 µM | > 50 µM | > 50 µM | 12.5 µM | > 50 µM | 21.2 µM | > 50 µM | 22.8 µM | > 50 µM | 
14 | Cc1nc2ccc(Nc3nc(NCCN4CCOCC4)nc(Nc4ccc(F)cc4)n3)cc2n1Cc1ccccc1 | 3.6 µM | 13.2 µM | 2.94 µM | 4.62 µM | 8.04 µM | 27.9 µM |  | 32.2 µM | 19.9 µM | 17.3 µM | 3.59 µM | 1.56 µM | 4.48 µM | 1.74 µM | 2.27 µM | 4.02 µM |  | 7.26 µM | 3.82 µM | 2.04 µM
15 | COc1cccc(NC(=O)CC(=O)N2N=C(N(CCC#N)c3ccccc3C)CC2c2ccccc2)c1 (stereo unspecified) | > 100 µM | > 100 µM | > 100 µM | > 100 µM | > 100 µM | > 100 µM | > 100 µM |  | > 100 µM | > 100 µM |  |  |  |  |  |  |  |  |  | 
16 | NC(=O)N/N=C/C(/C=N/NC(N)=O)[N+](=O)[O-] | > 100 µM |  | > 100 µM | > 100 µM | > 100 µM | > 100 µM | > 100 µM | > 100 µM | > 100 µM | > 100 µM |  |  |  |  |  |  |  |  |  | 
